{
  "source": "paper PMC7440915",
  "about": "“Discovery of surrogate agonists for visceral fat Treg cells that modulate metabolic indices in vivo” (eLife, 2020)",
  "system": "vTreg53 TCR",
  "experiment": "vTreg53 TCR tetramer staining of single peptide-A^b yeast clone",
  "format": "binding, murine",
  "details": "500 nM final tetramer concentration",
  "experimental": "Figure 2. Identification of surrogate peptides recognized by the vTreg53 TCR. (A) The vTreg53 TCR was used to screen and isolate the peptide-MHC yeast display. vTreg53 TCR tetramer staining (500 nM of TCR-SA) together with c-Myc staining is shown for the naïve library and four consecutive rounds of selection. […] (C) Positional frequency representation from the deep sequencing of the third round of selection with vTreg53. (D) Positional frequency matrix based on the deep sequencing of the fourth round of the peptide-MHC yeast selection. […] Data shown are representative of at least two independent experiments. Figure 2—figure supplement 1. Evolution of peptide-Ab yeast display. […] TEXT PRINTED IN THE PICTURE: (B) Fat7: Fraction: 0.596 | (B) TMYKGPHAVAAFT: Fraction: 0.369 | (B) LMFKGPHAVAAFT: Fraction: 0.029 | (B) FTYKNPRPVAATG: Fraction: 0.006 | (B) Fat15: Fraction: 0.000 | (B) TMYKNPRPVAATG: Fraction: 0.000 | (B) TMYKNPRPVAATG: Fraction: 0.000 DOUBTS OF THE COPYIST ABOUT THIS PICTURE: Panel B: the Fraction values are shares of sequencing reads from a selection, so it is uncertain whether they count as a result for a substance. […]\nYeast were passaged in SDCAA and induced with SGCAA and selected with streptavidin (SA) - coated magnetic MACS beads (Miltenyi) coated with biotinylated TCR. […] Peptide-A^b surface expression was monitored with anti-c-myc (Cell Signaling) antibody staining. […]",
  "data": [
    {"sequence": "LMFKGPHAVQAVG [Fat7]", "values": [
      {"measurement": "vTreg53 TCR-SA tetramer staining", "value": "positive"}
    ]}
  ]
}
